Laboratory results taken from patent US11613552B2, “Pharmaceutical agents, compositions, and methods relating thereto” (Alltech, Inc., priority 2017, dated 2023).

System: INSRβ/AS160
Experiment: Western blot of INSRβ and AS160 phosphorylation in HepG2 cells
Type: cell-based, human
Conditions: 600 ppb, 30 and 60 minutes (FIG. 23)
Description: HepG2 cells were seeded on 6-well plates (7×10^5 cells/well) and cultured in 10% FBS EMEM media for 30 hr. Then these cells were washed twice with PBS to remove residual sera, and serum-starved in plain EMEM media overnight. These serum-starved HepG2 cells were treated without or with Compound #43 (600 ppb) in serum-free media for 0 minute (right before the treatment), 30 and 60 minutes.
After the above treatments, cultured HepG2 cells or differentiated C2C12 cells were rinsed twice with ice-cold PBS and lysed in ice-cold RIPA buffer containing complete proteinase and phosphatase inhibitors (Thermo-Fisher Scientific, Waltham, Mass.) on ice for 30 min. […] Protein levels in the supernatant of these cell lysates were determined using the Pierce Micro-BCA protein assay kit (Thermo Scientific-Piece Biotechnology, Rockford, Ill.) according to the manufacturer's protocol.
One hundred micrograms of skeletal muscle or liver tissue proteins, five micrograms of HepG2 cell protein extracts, or eight micrograms of differentiated C2C12 cell protein extracts were subjected to SDS-PAGE gel separation and then transferred to PVDF membranes, as described previously (Reddy et al. 2008 Science). […] Positive signals on the membrane blots were detected using the Amersham's enhanced chemiluminescence Western Blotting Prime Detection reagents (GE Healthcare Lifescience, Pittsburgh, Pa.). […]

Structure (SMILES): C[Se]C[C@H]1O[C@@H](n2cnc3c(N)ncnc32)C(OC(C)=O)C1OC(C)=O (some centres unmarked) [Compound #43, Adenosine, 5′-Se-methyl-5′-selino-, 2′,3′-diacetate]
- phosphorylated AS160: significant increase of phosphorylated AS160 at 5588
- phosphorylated INSRβ at Y1146: significant increase of phosphorylated INSRβ at Y1146
